Target: cAMP-specific 3',5'-cyclic phosphodiesterase 4A (Homo sapiens, UniProt P27815)
Assay: PDE4A Inhibition Assay
Experimental: Inhibition of PDE4A was performed using IMAP technology (Molecular Devices, CA). PDE4A1A mixture was dispensed into 1536-well black/solid bottom assay plates (Greiner Bio-One North America, NC) using a Flying Reagent Dispenser (Aurora Discovery, CA). The plates were centrifuged at 1000 rpm for 30s and compound was transferred to the assay plate using a Kalypsys pin tool. After incubation, cAMP was dispensed into the plates to initiate the reaction. IMAP binding reagent was then added to the assay plate after the reaction.

Sequence of cAMP-specific 3',5'-cyclic phosphodiesterase 4A (P27815 whole entry): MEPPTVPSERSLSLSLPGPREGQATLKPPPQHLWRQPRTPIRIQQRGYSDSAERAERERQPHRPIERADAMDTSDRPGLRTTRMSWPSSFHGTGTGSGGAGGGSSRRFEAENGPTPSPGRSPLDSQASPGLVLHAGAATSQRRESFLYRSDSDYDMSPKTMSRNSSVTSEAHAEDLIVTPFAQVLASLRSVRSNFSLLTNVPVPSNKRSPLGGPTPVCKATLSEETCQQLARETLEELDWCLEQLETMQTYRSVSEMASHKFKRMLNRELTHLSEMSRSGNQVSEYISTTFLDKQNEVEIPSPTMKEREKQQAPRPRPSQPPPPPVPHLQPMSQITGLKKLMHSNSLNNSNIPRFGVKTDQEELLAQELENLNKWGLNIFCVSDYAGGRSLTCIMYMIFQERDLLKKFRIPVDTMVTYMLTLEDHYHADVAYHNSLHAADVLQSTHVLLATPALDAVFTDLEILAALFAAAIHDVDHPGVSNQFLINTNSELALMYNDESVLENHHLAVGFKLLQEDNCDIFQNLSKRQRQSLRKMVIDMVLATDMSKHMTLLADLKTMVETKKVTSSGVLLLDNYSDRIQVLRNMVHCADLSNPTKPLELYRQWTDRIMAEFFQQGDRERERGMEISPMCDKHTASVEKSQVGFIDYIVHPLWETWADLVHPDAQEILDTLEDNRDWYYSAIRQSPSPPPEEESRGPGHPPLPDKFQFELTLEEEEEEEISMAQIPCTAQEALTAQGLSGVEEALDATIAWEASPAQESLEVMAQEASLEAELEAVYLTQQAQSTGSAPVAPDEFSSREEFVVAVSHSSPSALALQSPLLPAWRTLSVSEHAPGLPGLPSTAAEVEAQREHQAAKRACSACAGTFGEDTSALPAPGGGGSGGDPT

Row | Compound | IC50 (pH 7.2, 22 °C) [µM] | IC50 [µM]
1 | COc1cccc(C2=Nn3c(nnc3-c3cccc(OC)c3OC)SC2)c1 [triazolothiadiazine, 7D] | > 20 | –
2 | COc1ccc(-c2nnc3n2N=C(c2ccc(OC)c(OC)c2)CS3)cc1 [triazolothiadiazine, 5C] | 0.0889 | –
3 | CCOc1ccccc1-c1nnc2n1N=C(c1ccc(OC)cc1OC)CS2 [triazolothiadiazine, 9J] | – | > 20
4 | COc1ccc(C2=Nn3c(nnc3-c3ccc(OC)cc3OC)SC2)c(OC)c1 [triazolothiadiazine, 9E] | – | > 20
5 | COc1ccccc1C1=Nn2c(nnc2-c2ccccc2O)SC1 [triazolothiadiazine, 6K] | > 20 | –
6 | COc1cc(OC)cc(-c2nnc3n2N=C(c2c(OC)cccc2OC)CS3)c1 [triazolothiadiazine, 11H] | – | 19.6
7 | COc1ccc(C2=Nn3c(nnc3-c3ccccc3O)SC2)cc1 [triazolothiadiazine, 8K] | – | 8.4
8 | COc1ccc(C2=Nn3c(nnc3-c3ccccc3C)SC2)c(OC)c1 [triazolothiadiazine, 9I] | – | > 20
9 | COc1cccc(C2=Nn3c(nnc3-c3ccc(OC)cc3OC)SC2)c1 [triazolothiadiazine, 7E] | 13.4 | –
10 | COc1ccc(-c2nnc3n2N=C(c2ccc(OC)cc2OC)CS3)cc1 [triazolothiadiazine, 9C] | – | 13.4
11 | CCOc1ccccc1-c1nnc2n1N=C(c1ccc(OC)cc1)CS2 [triazolothiadiazine, 8J] | – | 4.5
12 | COc1ccccc1C1=Nn2c(nnc2-c2cccc(OC)c2OC)SC1 [triazolothiadiazine, 6D] | > 20 | –
13 | COc1ccc(C2=Nn3c(nnc3-c3cccc(OC)c3OC)SC2)cc1 [triazolothiadiazine, 8D] | – | > 20
14 | COc1cccc(C2=Nn3c(nnc3-c3cccc(OC)c3)SC2)c1 [triazolothiadiazine, 7B] | 12.6 | –
15 | COc1ccc(C2=Nn3c(nnc3-c3ccccc3O)SC2)c(OC)c1 [triazolothiadiazine, 9K] | – | > 20
16 | COc1ccc(OC)c(-c2nnc3n2N=C(c2c(OC)cccc2OC)CS3)c1 [triazolothiadiazine, 11F] | – | > 20
17 | COc1cccc(C2=Nn3c(nnc3-c3ccc(OC)c(OC)c3)SC2)c1 [triazolothiadiazine, 7G] | 9 | –
18 | COc1ccc(-c2nnc3n2N=C(c2ccccc2OC)CS3)cc1 [triazolothiadiazine, 6C] | 14.1 | –
19 | COc1ccc(C2=Nn3c(nnc3-c3cccc(OC)c3)SC2)cc1 [triazolothiadiazine, 8B] | – | 12.6
20 | COc1ccccc1C1=Nn2c(nnc2-c2ccccc2OC)SC1 [triazolothiadiazine, 6A] | 20 | –
21 | COc1ccc(C2=Nn3c(nnc3-c3ccccc3OC)SC2)cc1 [triazolothiadiazine, 8A] | – | > 20
22 | COc1ccc(OC)c(C2=Nn3c(nnc3-c3ccccc3OC)SC2)c1 [triazolothiadiazine, 10A] | – | 8.9
23 | COc1ccccc1-c1nnc2n1N=C(c1c(OC)cccc1OC)CS2 [triazolothiadiazine, 11A] | – | > 20
24 | COc1cccc(OC)c1C1=Nn2c(nnc2-c2ccccc2C)SC1 [triazolothiadiazine, 11I] | – | 14.1

Row | Compound | IC50 (pH 7.2, 22 °C) [µM] | IC50 [µM]
25 | COc1ccc(-c2nnc3n2N=C(c2cc(OC)ccc2OC)CS3)c(OC)c1 [triazolothiadiazine, 10E] | – | 5.3
26 | COc1ccc(C2=Nn3c(nnc3-c3ccc(OC)c(OC)c3)SC2)c(OC)c1 [triazolothiadiazine, 9G] | – | 6.7
27 | COc1cccc(-c2nnc3n2N=C(c2c(OC)cccc2OC)CS3)c1 [triazolothiadiazine, 11B] | – | > 20
28 | COc1ccc(C2=Nn3c(nnc3-c3cc(OC)cc(OC)c3)SC2)cc1 [triazolothiadiazine, 8H] | – | 9.5
29 | COc1cc(OC)cc(-c2nnc3n2N=C(c2ccc(OC)cc2OC)CS3)c1 [triazolothiadiazine, 9H] | – | > 20
30 | COc1cccc(-c2nnc3n2N=C(c2c(OC)cccc2OC)CS3)c1OC [triazolothiadiazine, 11D] | – | > 20
31 | CCOc1ccccc1-c1nnc2n1N=C(c1cc(OC)ccc1OC)CS2 [triazolothiadiazine, 10J] | – | 13.4
32 | COc1cccc(C2=Nn3c(nnc3-c3ccccc3C)SC2)c1 [triazolothiadiazine, 7I] | – | 3.2
33 | COc1cccc(C2=Nn3c(nnc3-c3ccccc3OC)SC2)c1 [triazolothiadiazine, 7A] | 12 | –
34 | COc1ccc(C2=Nn3c(nnc3-c3ccc(OC)cc3)SC2)cc1 | – | 8.4
35 | COc1ccc(C2=Nn3c(nnc3-c3cc(OC)ccc3OC)SC2)c(OC)c1 [triazolothiadiazine, 9F] | – | 7.5
36 | COc1cc(OC)cc(-c2nnc3n2N=C(c2ccccc2OC)CS3)c1 [triazolothiadiazine, 6H] | 13.4 | –
37 | COc1ccc(OC)c(C2=Nn3c(nnc3-c3cc(OC)ccc3OC)SC2)c1 [triazolothiadiazine, 10F] | – | 11.9
38 | CCOc1ccccc1-c1nnc2n1N=C(c1cccc(OC)c1)CS2 [triazolothiadiazine, 7J] | – | 11.2
39 | COc1cccc(OC)c1C1=Nn2c(nnc2-c2ccccc2O)SC1 [triazolothiadiazine, 11K] | – | > 20
40 | COc1ccc(C2=Nn3c(nnc3-c3ccccc3C)SC2)cc1 [triazolothiadiazine, 8I] | – | 12.5
41 | COc1ccc(C2=Nn3c(nnc3-c3ccc(OC)cc3OC)SC2)cc1 [triazolothiadiazine, 8E] | – | > 20
42 | COc1ccc(-c2nnc3n2N=C(c2c(OC)cccc2OC)CS3)cc1OC [triazolothiadiazine, 11G] | – | 14.1
43 | COc1ccc(C2=Nn3c(nnc3-c3ccccc3OC)SC2)c(OC)c1 [triazolothiadiazine, 9A] | – | 15
44 | COc1ccc(C2=Nn3c(nnc3-c3cc(OC)ccc3OC)SC2)cc1 [triazolothiadiazine, 8F] | – | 1.7
45 | CCOc1ccccc1-c1nnc2n1N=C(c1ccccc1OC)CS2 [triazolothiadiazine, 6J] | > 20 | –
46 | COc1cccc(-c2nnc3n2N=C(c2ccc(OC)cc2OC)CS3)c1 [triazolothiadiazine, 9B] | – | 14.1
47 | COc1ccc(C2=Nn3c(nnc3-c3ccc(OC)c(OC)c3)SC2)cc1OC [triazolothiadiazine, 5G] | 0.177 | –
48 | COc1cccc(C2=Nn3c(nnc3-c3cc(OC)ccc3OC)SC2)c1 [triazolothiadiazine, 7F] | 8 | –

Row | Compound | IC50 (pH 7.2, 22 °C) [µM] | IC50 [µM]
49 | COc1ccc(-c2nnc3n2N=C(c2c(OC)cccc2OC)CS3)cc1 [triazolothiadiazine, 11C] | – | 19.7
50 | COc1ccccc1C1=Nn2c(nnc2-c2ccccc2C)SC1 [triazolothiadiazine, 6I] | 14.1 | –
51 | COc1ccc(OC)c(-c2nnc3n2N=C(c2ccccc2OC)CS3)c1 [triazolothiadiazine, 6F] | 19.6 | –
52 | COc1cccc(-c2nnc3n2N=C(c2ccc(OC)c(OC)c2)CS3)c1 [triazolothiadiazine, 5B] | 0.126 | –
53 | CCOc1ccccc1-c1nnc2n1N=C(c1c(OC)cccc1OC)CS2 [triazolothiadiazine, 11J] | – | > 20
54 | COc1cccc(C2=Nn3c(nnc3-c3ccccc3O)SC2)c1 [triazolothiadiazine, 7K] | – | 14.1
55 | COc1cc(OC)cc(-c2nnc3n2N=C(c2ccc(OC)c(OC)c2)CS3)c1 [triazolothiadiazine, 5H] | 0.05 | –
56 | COc1cc(OC)cc(-c2nnc3n2N=C(c2cc(OC)ccc2OC)CS3)c1 [triazolothiadiazine, 10H] | – | 12.7
57 | COc1ccc(-c2nnc3n2N=C(c2cc(OC)ccc2OC)CS3)cc1 [triazolothiadiazine, 10C] | – | 10.1
58 | COc1ccc(-c2nnc3n2N=C(c2ccccc2OC)CS3)c(OC)c1 [triazolothiadiazine, 6E] | 19.7 | –
59 | COc1ccc(OC)c(C2=Nn3c(nnc3-c3cccc(OC)c3OC)SC2)c1 [triazolothiadiazine, 10D] | – | 11.9
60 | COc1ccc(C2=Nn3c(nnc3-c3ccc(OC)c(OC)c3)SC2)cc1 [triazolothiadiazine, 8G] | – | 7.5
61 | COc1ccc(C2=Nn3c(nnc3-c3cccc(OC)c3OC)SC2)c(OC)c1 [triazolothiadiazine, 9D] | – | > 20
62 | COc1cccc(-c2nnc3n2N=C(c2ccccc2OC)CS3)c1 [triazolothiadiazine, 6B] | 13.4 | –
63 | COc1ccc(OC)c(C2=Nn3c(nnc3-c3ccccc3C)SC2)c1 [triazolothiadiazine, 10I] | – | 6.3
64 | COc1ccc(-c2nnc3n2N=C(c2ccc(OC)c(OC)c2)CS3)c(OC)c1 [triazolothiadiazine, 5E] | 0.079 | –
65 | COc1ccc(-c2nnc3n2N=C(c2ccccc2OC)CS3)cc1OC [triazolothiadiazine, 6G] | 8.9 | –
66 | COc1ccc(-c2nnc3n2N=C(c2c(OC)cccc2OC)CS3)c(OC)c1 [triazolothiadiazine, 11E] | – | > 20
67 | COc1ccc(OC)c(C2=Nn3c(nnc3-c3ccccc3O)SC2)c1 [triazolothiadiazine, 10K] | – | > 20
68 | COc1ccc(OC)c(C2=Nn3c(nnc3-c3ccc(OC)c(OC)c3)SC2)c1 [triazolothiadiazine, 10G] | – | 6.9
69 | COc1ccc(-c2nnc3n2N=C(c2cccc(OC)c2)CS3)cc1 [triazolothiadiazine, 7C] | 8.4 | –
70 | COc1cccc(C2=Nn3c(nnc3-c3cc(OC)cc(OC)c3)SC2)c1 [triazolothiadiazine, 7H] | 13.4 | –
71 | COc1cccc(-c2nnc3n2N=C(c2cc(OC)ccc2OC)CS3)c1 | – | 12.6

From BindingDB's records for doi:10.1016/j.bmcl.2008.01.028 (Nih, 2008)
